Experimental data as given in patent US11834391B2, “Pantothenamide analogues” (MMV MEDICINES FOR MALARIA VENTURE, priority 2018, dated 2023).

Columns and labels:
[1] = system: P. falciparum NF54 asexual blood stage parasites; assay: Replication assay for asexual blood-stage parasites (SYBR Green); format: cell-based; details: Plasmodium falciparum; P. falciparum NF54, 72 h incubation, 10% human serum; average of at least two replicate experiments; read-out: antimalarial IC50 asexual blood stages
Procedure: (§1) Plasmodium falciparum strain NF54 was cultured in Roswell Park Memorial Institute (RPMI) 1640 medium supplemented with 25 mM NaHCO3, 10% human type A serum and 5% (v/v) human type 0 red blood cells (Sanquin, the Netherlands). Replication assays for asexual blood-stage parasites were performed by diluting parasites in RPMI1640 medium with 10% human serum to a parasitemia of 0.83% and a hematocrit of 3%. 30 μl of diluted parasites were combined with 30 μl of compound serially diluted in DMSO and RPMI1640 medium to reach a final DMSO concentration of 0.1% in a total assay volume of 60 μL. Following a 72 h incubation at 37 ° C., 3% O2, 4% CO2, 30 μL of diluted SYBR® Green reagent was added according to the instructions of the manufacturer (Life Technologies) and fluorescence intensity was quantified using a Biotek Synergy® 2 plate reader. Gametocyte viability assays were initiated by inoculating a culture flask with 1% asexual blood-stage parasites in 5% haematocrit in RPMI1640 medium with 10% human serum. From day 4 to day 9 after inoculation, cultures were treated with 50 mM N-acetylglucosamine to eliminate asexual blood-stage parasites. At day 11 post inoculation, gametocytes (predominantly stage IV) were isolated by Percoll® density gradient centrifugation. Gametocytes were seeded at a density of 5,000 cells/well in a 384 well plate and combined with compound diluted in DMSO and subsequently in RPMI1640 medium to reach a final DMSO concentration of 0.1% in a volume of 60 μL RPMI1640 medium with 10% human serum. Following a 72 h incubation at 37 ° C., 3% O2, 4% CO2, 30 μL of ONE-Glo® reagent (Promega) was added and luminescence was quantified using a Biotek Synergy 2 reader. IC50 values were derived by fitting a four parameter logistic regression model to the data using least squares to find the best fit.

[2] = system: P. falciparum NF54 gametocytes; assay: Gametocyte viability assay (ONE-Glo luminescence); format: cell-based; details: Plasmodium falciparum; P. falciparum NF54 gametocytes (predominantly stage IV), 72 h incubation, 10% human serum; average of at least two replicate experiments; read-out: antimalarial IC50 gametocytes
Procedure: as §1

[3] = Metabolic stability in human primary hepatocytes (hepatocyte relay assay); format: in vitro ADME; details: primary hepatocytes (hepatocyte relay assay), human primary hepatocytes, relay assay, 10 μM, average of two replicate experiments; for half-life at 10 μM: read-out: T½ average
Procedure: (§2) Metabolic stability of compounds of the invention was assessed in a hepatocyte relay assay. Human primary hepatocytes (Xenotech) were cultured in collagen coated 96-well plates in Williams E (Gibco® 32551087) supplemented with 1% PenStrep (Gibco 15140-122), 1% Fungizone® (Gibco 15290026), 10% heat-inactivated fetal bovine serum (hiFBS) (Gibco 10270-106), 0.1 IU/ml insulin (Sigma 12643) and 7μM hydrocortisone hemisuccinate (Sigma H2270) at 37° C. and 5% CO2. Test compounds were added to a final concentration of 10 μM in 0.1 DMSO. Every 24 hours, the cell supernatant was transferred to freshly plated, metabolically full active cells. At regular time intervals, aliquots of supernatants were frozen for future analysis. At the end of the incubation, all samples were thawed and compound levels in time were determined by LC-MS analyses. Data were analysed by linear regression.

[4] = system: P. falciparum strain Pf3D70087/N9; assay: In vivo antimalarial activity in humanized mouse model for P. falciparum infection; parameters: species or system Plasmodium falciparum
Procedure: Reduction of existing parasitemia in vivo was investigated using a humanized mouse model for P. falciparum infection. Female NODscidIL2Rynull mice were engrafted by daily intravenous injection of 0.6 ml of human blood for 11 days. Subsequently, mice were infected with P. falciparum strain Pf3D70087/N9 by injecting 2.10^7 parasites in a volume of 0.2 ml. Four days post infection, mice were treated with a single 50 mg/kg dose of test compound. To this end, compounds were formulated in 70% Tween®-80 (d=1.08g/ml) and 30% ethanol (d=0.81g/ml), followed by a 10-fold dilution in H2O and administered by oral gavage. Parasitemia was followed by daily collection of 2 μl tail blood. The hematocrit was determined by fluorescence-activated cell sorting (FACS) and parasitemia by microscopy on >10,000 red blood cells. […] The compounds indicated at the legend were dosed as a single oral dose of 50 mg/kg at day 4 post infection (indicated by the arrow) and parasitemia was followed for another three days. The data shown in FIG. 1 indicate that all pantothenamide analogues tested show a dramatic reduction in blood stage parasitemia at a single oral dose of 50 mg/kg.

[5] = system: Human primary hepatocytes; assay: Metabolic stability in human primary hepatocytes (hepatocyte relay assay); format: in vitro ADME; details: comparative example
Procedure: as §2

[6] = female NODscidIL2Rγnull mice, single oral dose 50 mg/kg at day 4 post infection
[7] = same protocol as example 16, relay assay

SMILES | IC50 [1] [nM] | IC50 [2] [nM] | hepatocyte CLint at 10 μM [3] [µL/min/1e6 cells] | half-life at 10 μM [3] [h] | metabolic stability compared with the compounds of the invention (in words) [5] | Metabolic stability in human hepatocytes Clint [5, 7] [μl/min/10^6 cells] | Metabolic stability in human hepatocytes T½ [5, 7] [h] | In vivo efficacy log reduction in parasitemia in Pf SCID mouse at 50 mg/kg p.o. 1 × QD [4, 6] | in vivo efficacy compared with the compounds of the invention (in words) ([4]; comparative example) | In vivo efficacy log reduction in parasitemia in Pf SCID mouse at 50 mg/kg p.o. 1 × QD ([4]; comparative example, same protocol as example 17, female NODscidIL2Rγnull mice)
C[C@@H](CNC(=O)[C@H](O)C(C)(C)CO)NC(=O)c1cccc(C#N)c1 [Compound C1, (2R)-N-[(2S)-2-[(3-cyanophenyl)formamido]propyl]-2,4-dihydroxy-3,3-dimethylbutanamide] | 7.4 | 2.2 | 0.3 | 84.1 |  |  |  | >3 |  | 
C[C@H](CNC(=O)[C@@H](O)C(C)(C)CO)NC(=O)CCc1ccccc1F [MMV689258, reference compound] |  |  |  |  | substantially lower | 0.8 | 29.403 |  | substantially less efficacious | 1.5
C[C@@H](CNC(=O)[C@H](O)C(C)(C)CO)NC(=O)c1ccc(F)c(Cl)c1 [Compound G1, (2R)-N-[(2S)-2-[(3-chloro-4-fluorophenyl)formamido]propyl]-2,4-dihydroxy-3,3-dimethylbutanamide] | 3.4 | 0.2 |  |  |  |  |  |  |  | 
C[C@@H](CNC(=O)[C@H](O)C(C)(C)CO)NC(=O)c1cc(C#N)ccc1F [Compound B1, (2R)-N-[(2S)-2-[(5-cyano-2-fluorophenyl)formamido]propyl]-2,4-dihydroxy-3,3-dimethylbutanamide] | 6.2 | 21.4 | 0.2 | 107 |  |  |  | 2.4 |  | 

Now from value to compound, other results behind:

IC50 [1] [nM] | IC50 [2] [nM] | hepatocyte CLint at 10 μM [3] [µL/min/1e6 cells] | half-life at 10 μM [3] [h] | metabolic stability compared with the compounds of the invention (in words) [5] | Metabolic stability in human hepatocytes Clint [5, 7] [μl/min/10^6 cells] | Metabolic stability in human hepatocytes T½ [5, 7] [h] | SMILES | In vivo efficacy log reduction in parasitemia in Pf SCID mouse at 50 mg/kg p.o. 1 × QD [4, 6] | in vivo efficacy compared with the compounds of the invention (in words) ([4]; comparative example) | In vivo efficacy log reduction in parasitemia in Pf SCID mouse at 50 mg/kg p.o. 1 × QD ([4]; comparative example, same protocol as example 17, female NODscidIL2Rγnull mice)
2.1 | 0.4 |  |  |  |  |  | C[C@@H](CNC(=O)[C@H](O)C(C)(C)CO)NC(=O)c1cccc(Cl)c1 [Compound F1, (2R)-N-[(2S)-2-[(3-chlorophenyl)formamido]propyl]-2,4-dihydroxy-3,3-dimethylbutanamide] |  |  | 
1.9 | 2 | 0.5 | 42.2 |  |  |  | C[C@@H](CNC(=O)[C@H](O)C(C)(C)CO)NC(=O)c1cccc(F)c1 [Compound E1, (2R)-N-[(2S)-2-[(3-fluorophenyl)formamido]propyl]-2,4-dihydroxy-3,3-dimethylbutanamide] | >3 |  | 
2.3 | 0.4 |  |  |  |  |  | C[C@@H](CNC(=O)[C@H](O)C(C)(C)CO)NC(=O)c1cc(Cl)c(F)cc1F [Compound D1, (2R)-N-[(2S)-2-[(5-chloro-2,4-difluorophenyl)formamido]propyl]-2,4-dihydroxy-3,3-dimethylbutanamide] |  |  | 
2.4 | 8 | 0.4 | 59.4 |  |  |  | C[C@@H](CNC(=O)[C@H](O)C(C)(C)CO)NC(=O)c1cc(F)c(F)cc1F [Compound A1, (2R)-2,4-dihydroxy-3,3-dimethyl-N-[(2S)-2-[(2,4,5-trifluorophenyl)formamido]propyl]butanamide] | >3 |  | 
